According to patent publication US8404738B2 (Hoffmann-La Roche Inc., priority 2011, dated 2013):

Key:
recombinant human HDAC8 = target: T1, recombinant human HDAC8 (Homo sapiens, UniProt Q9BY41); assay: HDAC8 inhibition: recombinant HDAC8 fluorometric assay; type: biochemical; settings: recombinant human HDAC8, substrate Ac-Arg-His-Lys-Lys(ε-acetyl)-AMC; read-out: HDAC8 IC50
T1 construct: made in house; host or cells: insect cells
T1 sequence (Q9BY41 1-377): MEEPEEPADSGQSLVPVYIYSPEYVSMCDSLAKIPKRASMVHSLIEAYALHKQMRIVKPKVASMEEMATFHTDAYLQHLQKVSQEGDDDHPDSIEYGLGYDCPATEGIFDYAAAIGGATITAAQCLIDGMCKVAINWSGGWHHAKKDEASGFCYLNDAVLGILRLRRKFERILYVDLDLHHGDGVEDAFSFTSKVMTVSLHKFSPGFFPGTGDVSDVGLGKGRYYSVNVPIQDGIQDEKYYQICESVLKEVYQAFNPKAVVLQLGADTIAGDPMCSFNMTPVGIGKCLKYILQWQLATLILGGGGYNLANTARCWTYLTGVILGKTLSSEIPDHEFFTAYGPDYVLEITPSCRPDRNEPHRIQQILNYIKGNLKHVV
Procedure: HDAC8 Inhibition by Novel Compounds: Recombinant HDAC8 Fluorometric Assay.
A competitive inhibitory assay of HDAC8 was carried out by using recombinant HDAC8 and a commercial substrate Ac-Arg-His-Lys-Lys(ε-acetyl)-AMC.
Compounds were tested for their ability to inhibit histone deacetylase 8 using an in vitro deacetylation assay. The enzyme source for this assay was recombinant human HDAC8 protein expressed and purified from insect cells. […] The substrate consisted of a commercial product Ac-Arg-His-Lys-Lys(ε-acetyl)-AMC (substrate is available from Cayman Chemical). […] 1 μl of half-log diluted compounds were added into wells and incubated for 15 min at rt. After that, 8 μl of substrate solution was transferred to the wells and incubated for 30 min at rt. After deacetylation of the substrate by incubation with HDAC8 enzyme, subsequent exposure to a developing reagent produced a fluorophore that was directly proportional to the level of deacetylation. […] The fluorescence signal was measured by a FlexStation3 plate reader (excitation wave length 340-360 nm; emission wave length 440-465 nm). The HDAC8 IC50 was calculated after normalization and curve fitting using XLfit4.0 software. Inhibition %=[Mean(top)−signal(sample)]×100/[Mean(top)−Mean(bottom)].

HDAC6 = target: T2, HDAC6 (Homo sapiens, UniProt Q9UBN7); assay: Tubulin acetylation cytoblot assay (A549 cells); type: cell-based; settings: 17-18 h incubation, tubulin acetylation as marker of HDAC6 inhibition, read-out: Tub-Ac EC50
T2 construct: endogenous in cells; host or cells: A549 cells
T2 sequence (Q9UBN7 1-1215): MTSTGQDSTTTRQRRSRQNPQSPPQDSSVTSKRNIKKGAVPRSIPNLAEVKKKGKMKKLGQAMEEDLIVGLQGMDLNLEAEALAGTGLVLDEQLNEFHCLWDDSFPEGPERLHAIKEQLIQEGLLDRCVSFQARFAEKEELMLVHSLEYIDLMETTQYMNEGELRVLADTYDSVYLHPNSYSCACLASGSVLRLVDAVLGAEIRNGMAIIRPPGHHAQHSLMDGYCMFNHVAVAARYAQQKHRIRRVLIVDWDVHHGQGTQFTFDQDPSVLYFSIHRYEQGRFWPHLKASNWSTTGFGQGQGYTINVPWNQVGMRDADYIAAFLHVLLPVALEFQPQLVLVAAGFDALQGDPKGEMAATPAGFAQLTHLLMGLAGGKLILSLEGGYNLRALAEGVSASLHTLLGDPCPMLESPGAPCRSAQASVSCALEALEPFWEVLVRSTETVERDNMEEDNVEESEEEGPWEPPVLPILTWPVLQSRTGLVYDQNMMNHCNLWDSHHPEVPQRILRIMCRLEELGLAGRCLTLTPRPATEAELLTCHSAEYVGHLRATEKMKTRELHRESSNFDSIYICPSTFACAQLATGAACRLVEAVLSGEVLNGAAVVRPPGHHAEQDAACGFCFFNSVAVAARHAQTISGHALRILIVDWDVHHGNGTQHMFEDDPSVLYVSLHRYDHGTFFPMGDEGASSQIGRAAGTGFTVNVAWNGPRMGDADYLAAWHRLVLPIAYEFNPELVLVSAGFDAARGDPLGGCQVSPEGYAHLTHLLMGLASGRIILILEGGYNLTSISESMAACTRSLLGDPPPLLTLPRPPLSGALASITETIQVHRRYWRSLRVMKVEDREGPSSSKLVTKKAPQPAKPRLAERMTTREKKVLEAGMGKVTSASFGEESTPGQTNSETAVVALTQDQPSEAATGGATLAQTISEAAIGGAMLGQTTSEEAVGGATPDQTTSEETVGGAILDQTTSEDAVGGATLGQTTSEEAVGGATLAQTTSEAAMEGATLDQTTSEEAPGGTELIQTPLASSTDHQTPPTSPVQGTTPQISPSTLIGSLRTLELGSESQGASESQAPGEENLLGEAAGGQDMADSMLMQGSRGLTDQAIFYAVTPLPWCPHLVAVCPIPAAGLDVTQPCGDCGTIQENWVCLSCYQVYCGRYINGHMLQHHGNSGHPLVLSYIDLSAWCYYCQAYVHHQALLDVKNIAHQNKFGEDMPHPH
Procedure: Tubulin Acetylation Induction by Novel Compounds: Tubulin Acetylation Cytoblot Assay.
Tubulin acetylation is a PD marker for HDAC6 inhibition. The extent of tubulin acetylation represents the inhibitory effect on HDAC6.
Novel compounds were tested for their ability to inhibit HDAC6 using a cell-based deacetylation assay. Tubulin acetylation was detected by the anti-acetylated tubulin antibody (Sigma) and horse radish peroxidase (HRP) conjugated secondary antibody (KangChen Bio. Tech.). […] 20 μl of diluted compound solution was transferred to the cell culture plate and incubated for 17-18 h. After medium removal and fixation by formaldehyde (3.7% paraformaldehyde in TBS), the cells in the plates were treated with 180 μl of −20° C. MeOH and incubated for 5 min at rt. The cell lysis was incubated with 75 μl of primary anti-acetylated tubulin antibody and secondary HRP conjugated antibody solution (1:750 anti-acetylated tubulin, 1:750 HRP conjugated anti-mouse IgG in antibody dilution buffer not containing sodium azide) for 4 h at 4° C. By adding the HRP substrate, enhanced chemiluminescence (ECL) reagent (GE Healthcare) generated luminescence corresponding to the level of tubulin acetylation. So that 75 μl of ECL was added into the wells and the luminescence from each well was immediately quantified by the plate reader. Based on the luminescence reading, the Tub-Ac EC50s against HDAC6 of the tested compounds were calculated by plotting the curve with XLfit4.0 software. Inhibition %=[signal(sample)−Mean(bottom)]×100/[Mean(top)−Mean(bottom)]

[1] = tested on: p21 promoter-luciferase construct; assay: p21 reporter gene induction (HeLa cells, p21 promoter-luciferase construct); settings: for p21 RP3: relative gene level of p21 compared to MS275 at 3 μM; for p21 RP10: relative level of p21 compared to MS275 at 10 μM; for p21 RP30: relative level of p21 compared to MS275 at 30 μM;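 as to all read-outs here: transfected HeLa cells exposed to compound for 15 h, luciferase luminescence read from lysates, p21 promoter lacks p53 site, proxy for cellular HDAC1/2/3 inhibition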
Procedure: As a surrogate for in-cell HDAC1/2/3 inhibition, p21 induction was used as a counterscreen to evaluate the selectivity of the compounds in the present invention toward HDAC6 or HDAC8.
The novel compounds of the present invention were tested for their ability to induce p21 gene expression using a reporter gene assay involving HeLa cells transfected with a p21 promoter-luciferase construct. The p21 promoter contained the Sp1/Sp3 binding site for HDAC but not the upstream p53 binding site. Briefly, the day before transfection, HeLa cells were seeded at 11,000 cells/well in a 96-well culture plate and incubated at 37° C. in 5% CO2 overnight. A transfection media was prepared prior to transfection according to the following procedure: (1) 5 μl serum-free DMEM, 0.15 μl Fugene 6 reagent, 40 ng p21-luc, 10 ng GFP were mixed gently and incubated at rt for 30 minutes; (2), then 98 μl DMEM (with 10% FBS, 1% penicillin and streptomycin) was added to the DNA: Fugene 6 reagent complex and mixed gently. For transfection, the medium was removed and replaced with 100 μl/well transfection media which was prepared according to the procedure above. After incubating the cells for 24 hours at 37° C. in 5% CO2, fresh media and test compounds were added to the wells and the cells further incubated for 15 hours at 37° C. in 5% CO2. Cells were lysed by adding 80 μl/well of a cell culture lysis reagent (Promega). 50 μl of each lysate was taken for GFP detection using an excitation wavelength of 486 nm and detection at 527 nm. 100 μl luciferase assay reagent (Promega) was then added to every 20 μl cell lysate for luminometer detection.

Row | IC50 (recombinant human HDAC8) [nM] | EC50 (HDAC6) [nM] | SMILES | p21 RP3 [1] | p21 RP10 [1] | p21 RP30 [1]
1 | 1010 | 4690 | O=C(NO)c1ccc(NC2CCN(c3cc(F)cc(Cl)c3)C2=O)cc1 (centres unmarked) [Example 21, 4-[1-(3-Chloro-5-fluoro-phenyl)-2-oxo-pyrrolidin-3-ylamino]-N-hydroxy-benzamide] | 1.56 | 0.48 | 0.28
2 | 1930 | 1320 | O=C(NO)c1ccc(NC2CCN(c3cc(Cl)ccc3F)C2=O)cc1 (centres unmarked) [Example 22, 4-[1-(5-Chloro-2-fluoro-phenyl)-2-oxo-pyrrolidin-3-ylamino]-N-hydroxy-benzamide] | 0.42 | 0.28 | 0.39
3 | 770 | 2480 | O=C(NO)c1ccc(NC2CCN(c3cccc(Cl)c3Cl)C2=O)cc1 (centres unmarked) [Example 24, 4-[1-(2,3-Dichloro-phenyl)-2-oxo-pyrrolidin-3-ylamino]-N-hydroxy-benzamide] | 0.11 | 0.02 | 0.02
4 | 4690 | 4940 | O=C(NO)c1ccc(NC2CCN(c3cc(Cl)cc(Cl)c3)C2=O)cc1 (centres unmarked) [Example 26, 4-[1-(3,5-Dichloro-phenyl)-2-oxo-pyrrolidin-3-ylamino]-N-hydroxy-benzamide] | 0.42 | 0.06 | 0.04
5 | 750 | 2380 | O=C(NO)c1ccc(NC2CCN(c3c(Cl)cccc3Cl)C2=O)cc1 (centres unmarked) [Example 27, 4-[1-(2,6-Dichloro-phenyl)-2-oxo-pyrrolidin-3-ylamino]-N-hydroxy-benzamide] | 0.11 | 0.03 | 0.04
6 | 1860 | 4110 | Cc1cc(F)cc(C)c1N1CCC(Nc2ccc(C(=O)NO)cc2)C1=O (centres unmarked) [Example 28, 4-[1-(4-Fluoro-2,6-dimethyl-phenyl)-2-oxo-pyrrolidin-3-ylamino]-N-hydroxy-benzamide] | 0.04 | 0.01 | 0.01
7 | 750 | 13800 | O=C(NO)c1ccc(NC2CCN(c3ccc(Cl)c(CO)c3)C2=O)cc1 (centres unmarked) [Example 29, 4-[1-(4-Chloro-3-hydroxymethyl-phenyl)-2-oxo-pyrrolidin-3-ylamino]-N-hydroxy-benzamide] | 0.55 | 0.10 | 0.12
8 | 3210 | 2280 | O=C(NO)c1ccc(NC2CCN(c3cccc(Oc4ccccc4)c3)C2=O)cc1 (centres unmarked) [Example 30, N-Hydroxy-4-[2-oxo-1-(3-phenoxy-phenyl)-pyrrolidin-3-ylamino]-benzamide] | 0.13 | 0.09 | 0.05
9 | 4140 | 9780 | O=C(NO)c1ccc(NC2CCN(c3ccc(Oc4ccccc4)cc3)C2=O)cc1 (centres unmarked) [Example 31, N-Hydroxy-4-[2-oxo-1-(4-phenoxy-phenyl)-pyrrolidin-3-ylamino]-benzamide] | 0.09 | 0.07 | 0.05
10 | 710 | 700 | O=C(NO)c1ccc(NC2CCN(c3cccc(-c4ccccc4)c3)C2=O)cc1 (centres unmarked) [Example 32, 4-(1-Biphenyl-3-yl-2-oxo-pyrrolidin-3-ylamino)-N-hydroxy-benzamide] | 0.38 | 0.08 | 0.15
11 | 970 | 680 | O=C(NO)c1ccc(NC2CCN(c3cccc(-n4cccc4)c3)C2=O)cc1 (centres unmarked) [Example 33, N-Hydroxy-4-[2-oxo-1-(3-pyrrol-1-yl-phenyl)-pyrrolidin-3-ylamino]-benzamide] | 0.45 | 0.41 | 0.18
12 | 2890 | 10600 | O=C(NO)c1ccc(NC2CCN(c3ccc(-n4ccnc4)cc3)C2=O)cc1 (centres unmarked) [Example 34, N-Hydroxy-4-[1-(4-imidazol-1-yl-phenyl)-2-oxo-pyrrolidin-3-ylamino]-benzamide] | 0.36 | 0.12 | 0.06
13 | 610 | 2040 | O=C(NO)c1ccc(NC2CCN(c3cccc(-c4cnco4)c3)C2=O)cc1 (centres unmarked) [Example 35, N-Hydroxy-4-[1-(3-oxazol-5-yl-phenyl)-2-oxo-pyrrolidin-3-ylamino]-benzamide] | 0.44 | 0.25 | 0.20
14 | 930 | 2160 | O=C(NO)c1ccc(NC2CCN(c3cccc4ccccc34)C2=O)cc1 (centres unmarked) [Example 37, N-Hydroxy-4-(1-naphthalen-1-yl-2-oxo-pyrrolidin-3-ylamino)-benzamide] | 0.04 | 0.04 | 0.06

Row | SMILES | IC50 (recombinant human HDAC8) [nM] | EC50 (HDAC6) [nM] | p21 RP3 [1] | p21 RP10 [1] | p21 RP30 [1]
15 | O=C(NO)c1ccc(NC2CCN(c3ccc(Cl)c(Cl)c3)C2=O)cc1 (centres unmarked) [Example 25, 4-[1-(3,4-Dichloro-phenyl)-2-oxo-pyrrolidin-3-ylamino]-N-hydroxy-benzamide] | 970 | 4330 | 0.00 | 0.14 | −0.03
16 | CN(C)CCOc1cccc(N2CCC(Nc3ccc(C(=O)NO)cc3)C2=O)c1 (centres unmarked) [Example 36, 4-{1-[3-(2-Dimethylamino-ethoxy)-phenyl]-2-oxo-pyrrolidin-3-ylamino}-N-hydroxy-benzamide] | 490 | 2050 | 0.55 | 0.18 | 0.45
